Assay results: publication PMC10700673, “A Smart Intracellular Self‐Assembling Bioorthogonal Raman Active Nanoprobe for Targeted Tumor Imaging” (Advanced Science, 2023)

Molecular target: T1, Recombinant human legumain (Homo sapiens, UniProt Q99538)
T1 construct: purchased R&D systems
T1 sequence (Q99538 18-433): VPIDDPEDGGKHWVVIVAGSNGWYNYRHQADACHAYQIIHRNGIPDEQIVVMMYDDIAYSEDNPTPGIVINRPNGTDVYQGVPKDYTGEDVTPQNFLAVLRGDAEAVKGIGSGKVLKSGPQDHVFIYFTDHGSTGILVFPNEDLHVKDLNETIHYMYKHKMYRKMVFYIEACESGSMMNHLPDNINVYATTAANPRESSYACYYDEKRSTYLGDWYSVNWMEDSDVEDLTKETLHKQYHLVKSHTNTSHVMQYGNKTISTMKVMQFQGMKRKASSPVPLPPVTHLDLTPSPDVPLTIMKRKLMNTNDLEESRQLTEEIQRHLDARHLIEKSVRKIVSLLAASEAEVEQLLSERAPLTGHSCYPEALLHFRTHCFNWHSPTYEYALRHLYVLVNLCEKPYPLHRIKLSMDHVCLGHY
Test: legumain- and GSH-triggered cleavage and condensation in solution (Raman, HPLC, MALDI)
Format: biochemical
Details: 37 °C
Protocol: The detailed synthetic procedures and characterization of the nanoSABER probe are given in Scheme S1 and Figures S1 and S2 (Supporting Information), respectively. The Raman signatures of nanoSABER (Figure 2a) display the vibrational stretching frequencies of alkyne and nitrile at 2121 and 2230 cm^−1, respectively. The ratio of alkyne/nitrile Raman peak intensity in the nanoSABER solutions was measured to be 0.21±0.04. Next, we studied the cleavage of the nanoSABER probe by legumain, leading to the formation of supramolecular self‐assembled nanoparticles. This was verified using high‐resolution matrix‐assisted laser desorption/ionization–time‐of‐flight mass spectrometry (MALDI), RS, and high‐performance liquid chromatography (HPLC). We first incubated 25 µM of nanoSABER probe with 250 µM GSH for 2 h at 37 °C. This reduced the disulfide bond of D‐cysteine, producing reduced nanoSABER, which was identified using HPLC and MALDI by the appearance of a peak at a retention time of 16.5 min (Figure 2b) and an observed mass of 1737.5 (Figure 2c). When nanoSABER was co‐incubated with 250 µM GSH and 3 µL (10 µg/50 µL) legumain enzyme for 3 h at 37 °C, the reduced nanoSABER that was generated in situ reacted with the legumain enzyme to form an active cleaved intermediate. The latter underwent intermolecular condensation to yield the alkyne‐dimer. […] Both HPLC fractions were collected and characterized by MALDI.
Figure 2 Optical and structural properties of nanoSABER (R6‐AAN‐alkyne‐nitrile) and alkyne‐dimer. a) Raman spectra of R6AAN‐alkyne and nanoSABER showing the alkyne and nitrile vibrational stretching frequency at 2121 cm^−1 and 2230 cm^−1, respectively, expressed as the mean ± standard deviation for n = 22 independent in vitro measurements. b) HPLC chromatogram of 250 µM nanoSABER (red) and 250 µM nanoSABER + 1 mM GSH incubated for 3 h (green), and 250 µM nanoSABER + 1 mM GSH + 3 µL (10 µg/50 µL) legumain incubated for 3 h (blue). c–e) HR‐MALDI‐TOF/MS spectra of reduced nanoSABER, cleaved R6‐AAN, and alkyne‐dimer. f) Raman spectra of 250 µM nanoSABER + 1 mM GSH + 3 µL (10 µg/50 µL) legumain incubated for 3 h, shown as the mean with a standard deviation of n = 22 independent in vitro measurements. g) Enzymatic conversion ratios of 250 µM nanoSABER in the presence of 1 mM GSH and 3 µL (10 µg/50 µL) legumain enzyme as a function of time, as calculated from the alkyne/nitrile Raman peak intensity ratio. h,i) TEM and DLS of alkyne‐dimer nanoparticles (red circles) after incubation of 250 µM nanoSABER + 1 mM GSH + 3 µL (10 µg/50 µL) legumain for 3 h at 37 °C. All subpanels reflect representative data from i n vitro experiments repeated three times unless stated.
To accurately evaluate the efficiency of the R6‐AAN‐alkyne‐nitrile nanoprobe, time‐dependent Raman measurements were performed (Figure 2g), where the ratio of alkyne/nitrile peak intensity was used as an indicator of the reaction progress. We found as the reaction progressed the alkyne/nitrile peak intensity increased from 0.22±0.01 to 4.4±0.12 and plateaued at a final value of 4.6±0.12 indicating almost complete conversion of nanoSABER to alkyne‐dimer within 3 h. […] To further get insight into the structural arrangements of the self‐assembled dimers, transmission electron microscopy (TEM) was performed. […]

Ac‐Arg‐Arg‐Arg‐Arg‐Arg‐Arg‐Ala‐Ala‐Asn‐Cys(StBu)‐Pra‐Lys‐CBT [nanoSABER]
cleavage and condensation by legumain (HPLC retention time and MALDI mass) (250 µM + 1 mM GSH + 3 µL (10 µg/50 µL) legumain, 3 h): efficiently cleaved by legumain | time to almost complete conversion to alkyne-dimer (250 µM nanoSABER + 1 mM GSH + 3 µL (10 µg/50 µL) legumain, from the alkyne/nitrile Raman ratio): ≤ 3 h | alkyne/nitrile peak intensity ratio, start of reaction (250 µM nanoSABER + 1 mM GSH + 3 µL (10 µg/50 µL) legumain, time-dependent Raman, initial value): 0.22±0.01 | alkyne/nitrile peak intensity ratio, plateau final value (250 µM nanoSABER + 1 mM GSH + 3 µL (10 µg/50 µL) legumain, time-dependent Raman, plateau): 4.6±0.12 | alkyne/nitrile peak intensity ratio, as the reaction progressed (250 µM nanoSABER + 1 mM GSH + 3 µL (10 µg/50 µL) legumain, time-dependent Raman, value reached before plateau): 4.4±0.12
